Results as given in EP4806891A1 (Kangbaida (Sichuan) Biotechnology Co., Ltd., priority 2023, dated 2025).

Experiments:
HEK-Blue-hTLR8 cells = target: T1, HEK-Blue-hTLR8 cells (Homo sapiens, UniProt Q9NR97); assay: HEK-Blue-hTLR8 cell inhibition assay; assay type: cell-based; conditions: R848 3 µM, 16 h, OD 620 nm, read-out: TLR8 IC50
T1 construct: expressed in transfected cells; host or cells: HEK-Blue-hTLR8 cells (HEK293-derived reporter line)
T1 sequence (Q9NR97 27-1041): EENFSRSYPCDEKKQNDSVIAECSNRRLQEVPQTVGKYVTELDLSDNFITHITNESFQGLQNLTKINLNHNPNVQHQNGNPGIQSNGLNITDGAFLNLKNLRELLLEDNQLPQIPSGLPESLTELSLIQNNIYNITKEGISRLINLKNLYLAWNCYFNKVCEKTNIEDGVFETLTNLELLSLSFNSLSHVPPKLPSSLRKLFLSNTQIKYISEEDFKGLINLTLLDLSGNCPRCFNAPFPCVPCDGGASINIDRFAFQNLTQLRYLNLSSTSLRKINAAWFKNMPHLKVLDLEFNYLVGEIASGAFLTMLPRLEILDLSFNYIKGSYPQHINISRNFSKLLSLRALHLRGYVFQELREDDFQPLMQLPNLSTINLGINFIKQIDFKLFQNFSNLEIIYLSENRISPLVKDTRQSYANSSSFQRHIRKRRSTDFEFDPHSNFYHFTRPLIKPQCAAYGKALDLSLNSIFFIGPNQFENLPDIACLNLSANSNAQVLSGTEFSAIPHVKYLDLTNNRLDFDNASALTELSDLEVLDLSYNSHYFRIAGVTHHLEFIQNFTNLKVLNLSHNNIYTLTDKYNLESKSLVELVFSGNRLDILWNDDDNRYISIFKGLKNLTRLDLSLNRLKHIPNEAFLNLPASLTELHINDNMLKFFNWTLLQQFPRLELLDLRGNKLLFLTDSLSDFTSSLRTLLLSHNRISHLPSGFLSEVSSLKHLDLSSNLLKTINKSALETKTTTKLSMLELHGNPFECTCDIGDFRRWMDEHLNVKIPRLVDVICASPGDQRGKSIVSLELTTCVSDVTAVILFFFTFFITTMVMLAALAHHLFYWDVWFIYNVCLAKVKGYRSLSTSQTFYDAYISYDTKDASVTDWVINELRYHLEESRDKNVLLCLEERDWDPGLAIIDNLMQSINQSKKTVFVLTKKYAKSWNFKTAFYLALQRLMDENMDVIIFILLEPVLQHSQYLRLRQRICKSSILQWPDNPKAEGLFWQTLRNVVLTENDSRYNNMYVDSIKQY
In short: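 Cells were pre-incubated 4 h, then co-treated 16 h at 37 °C with compound (10 doses, 0.5–10000 nM final) plus R848 (0.8 µM for TLR7, 3 µM for TLR8) or ODN2006 (1 µM, TLR9). Reporter OD620 gave inhibition relative to DMSO blank and agonist-only controls; IC50 came from curve fitting.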

IL-6 = assay: In vivo inhibition assay of IL-6; parameters: species or system C57BL/6 female mice; conditions: Mus musculus, ip; mice, test compound 1 mg/kg by gavage, 25 µg R848 intraperitoneally 1 h later, serum IL-6 2 h later; read-out: IL-6 inhibition rate (intraperitoneal injection after 1 h)
Procedure: In vivo inhibition assay of IL-6
Experimental materials: Preparation of compound solutions: R848 was prepared with pure water (sterilized), with a final concentration of 25 µg/100 µL; the test compound was prepared with sodium citrate buffer at pH = 3, with a final concentration of 0.1 mg/mL.
Experimental animals: C57BL/6 female mice were purchased from GemPharmatech, aged 6-8 weeks.
Experimental methods: C57BL/6 female mice were randomly divided into a blank group, control group, and experimental group, with 8 in each group.
Blank group: Blood was collected from the mice after 12 h of fasting.
Control group: The mice were administered sodium citrate buffer at pH = 3 by gavage after 12 hours of fasting, and the remaining procedures were consistent with those of the experimental group.
Experimental group: After fasting for 12 h, the mice were administered with the test compound (1 mg/kg) by gavage, followed by an intraperitoneal injection of 25 µg R848 (purchased from MCE) 1 h later; 2 h later, the eyeballs were removed for blood collection, the serum was allowed to stand at room temperature for 30 min, then centrifuged for 10 min (3000 rpm), the supernatant was collected, and the serum IL-6 concentration was measured using an IL-6 ELISA kit. The IL-6 inhibition rate was calculated based on the serum IL-6 concentrations of the control and experimental groups. Calculation formula: inhibition rate = (C2-C3)/(C2-C1)×100%. • C1: serum IL-6 concentration of the blank group; • C2: serum IL-6 concentration of the control group; • C3: serum IL-6 concentration of the experimental group.
Four additional groups of experiments were performed separately according to the above experimental procedures, and the differences between these four groups and the above experiment were respectively: "25 µg R848 (purchased from MCE) was intraperitoneally injected after 4 h", "25 µg R848 (purchased from MCE) was intraperitoneally injected after 8 h", "25 µg R848 (purchased from MCE) was intraperitoneally injected after 16 h", and "25 µg R848 (purchased from MCE) was intraperitoneally injected after 24 h". Table 2: In vivo inhibition assay of IL-6

SMILES	IC50 (HEK-Blue-hTLR8 cells) [nM]	inhibition at 1 mg/kg (IL-6) [%]
CN1CC(Cc2nnc([C@]34CN(c5ccc(C#N)n6ncc(F)c56)C[C@@]3(C(F)(F)F)C4)o2)C1 [Compound 30, 3-fluoro-4-((1S,5R)-1-(5-((1-methylazetidin-3-yl)methyl)-1,3,4-oxadiazol-2-yl)-5-(trifluoromethyl)-3-azabicyclo[3.1.0]hexan-3-yl)pyrazolo[1,5-a]pyridine-7-carbonitrile]	< 100	> 90
CN1CCC(c2nnc([C@]34CN(c5ccc(C#N)n6ncc(F)c56)C[C@@]3(C(F)(F)F)C4)o2)CC1 [Compound 57, 3-fluoro-4-((1S,5R)-1-(5-(1-methylpiperidin-4-yl)-1,3,4-oxadiazol-2-yl)-5-(trifluoromethyl)-3-azabicyclo[3.1.0]hexan-3-yl)pyrazolo[1,5-a]pyridine-7-carbonitrile]	< 100	> 90
CN1CCC(c2nnc([C@]34CN(c5ccc(C#N)n6nccc56)C[C@@]3(C(F)(F)F)C4)o2)CC1 [Compound 59, 4-((1S,5R)-1-(5-(1-methylpiperidin-4-yl)-1,3,4-oxadiazol-2-yl)-5-(trifluoromethyl)-3-azabicyclo[3.1.0]hexan-3-yl)pyrazolo[1,5-a]pyridine-7-carbonitrile]	< 1000	> 80
CN1CCC(c2nnc([C@]34CN(c5ccc(OC(F)(F)F)c6ncccc56)C[C@@]3(C(F)(F)F)C4)o2)CC1 [Compound 64, 2-(1-methylpiperidin-4-yl)-5-((1S,5R)-5-(trifluoromethyl)-3-(8-(trifluoromethoxy)quinolin-5-yl)-3-azabicyclo[3.1.0]hexan-1-yl)-1,3,4-oxadiazole]	< 100	> 70
CN1CCC(c2nnc([C@]34CN(c5ccc(C#N)n6ncc(Br)c56)C[C@@]3(C(F)(F)F)C4)o2)CC1 [Compound 83, 3-bromo-4-((1S,5R)-1-(5-(1-methylpiperidin-4-yl)-1,3,4-oxadiazol-2-yl)-5-(trifluoromethyl)-3-azabicyclo[3.1.0]hexan-3-yl)pyrazolo[1,5-a]pyridine-7-carbonitrile]	> 1000	
CN1CCC(c2nnc([C@]34CN(c5ccc(C#N)n6ncc(Cl)c56)C[C@@]3(C(F)(F)F)C4)o2)CC1 [Compound 84, 3-chloro-4-((1S,5R)-1-(5-(1-methylpiperidin-4-yl)-1,3,4-oxadiazol-2-yl)-5-(trifluoromethyl)-3-azabicyclo[3.1.0]hexan-3-yl)pyrazolo[1,5-a]pyridine-7-carbonitrile]	< 1000	
CN1CCC(c2nnc([C@]34CN(c5c(Br)cc(C#N)n6ncc(Br)c56)C[C@@]3(C(F)(F)F)C4)o2)CC1 [Compound 85, 3,5-dibromo-4-((1S,5R)-1-(5-(1-methylpiperidin-4-yl)-1,3,4-oxadiazol-2-yl)-5-(trifluoromethyl)-3-azabicyclo[3.1.0]hexan-3-yl)pyrazolo[1,5-a]pyridine-7-carbonitrile]	< 1000	
CN1CCC(c2nnc([C@]34CN(c5c(Br)cc(C#N)n6nccc56)C[C@@]3(C(F)(F)F)C4)o2)CC1 [Compound 86, 5-bromo-4-((1S,5R)-1-(5-(1-methylpiperidin-4-yl)-1,3,4-oxadiazol-2-yl)-5-(trifluoromethyl)-3-azabicyclo[3.1.0]hexan-3-yl)pyrazolo[1,5-a]pyridine-7-carbonitrile]	< 100	
CN1CCC(c2nnc([C@]34CN(c5ccc(C(F)(F)F)n6nccc56)C[C@@]3(C(F)(F)F)C4)o2)CC1 [Compound 87, 2-(1-methylpiperidin-4-yl)-5-((1S,5R)-5-(trifluoromethyl)-3-(7-(trifluoromethyl)pyrazolo[1,5-a]pyridin-4-yl)-3-azabicyclo[3.1.0]hexan-1-yl)-1,3,4-oxadiazole]	< 1000	
CN1CCC(F)(c2nnc([C@]34CN(c5ccc(C#N)n6nccc56)C[C@@]3(C(F)(F)F)C4)o2)CC1 [Compound 90, 4-((1S,5R)-1-(5-(4-fluoro-1-methylpiperidin-4-yl)-1,3,4-oxadiazol-2-yl)-5-(trifluoromethyl)-3-azabicyclo[3.1.0]hexan-3-yl)pyrazolo[1,5-a]pyridine-7-carbonitrile]	< 100	
CN1CCC(c2nnc([C@]34CN(c5ccc(C#N)c6ncnn56)C[C@@]3(C(F)(F)F)C4)o2)CC1 [Compound 91, 5-((1S,5R)-1-(5-(1-methylpiperidin-4-yl)-1,3,4-oxadiazol-2-yl)-5-(trifluoromethyl)-3-azabicyclo[3.1.0]hexan-3-yl)-[1,2,4]triazolo[1,5-a]pyridine-8-carbonitrile]	< 100	
CN1CCC(Oc2nnc([C@]34CN(c5ccc(C(F)(F)F)c6ncccc56)C[C@@]3(C(F)(F)F)C4)o2)CC1 [Compound 92, 2-((1-methylpiperidin-4-yl)oxy)-5-((1S,5R)-5-(trifluoromethyl)-3-(8-(trifluoromethyl)quinolin-5-yl)-3-azabicyclo[3.1.0]hexan-1-yl)-1,3,4-oxadiazole]	< 100	
CN1CCC(Oc2nnc([C@]34CN(c5ccc(OC(F)(F)F)c6ncccc56)C[C@@]3(C(F)(F)F)C4)o2)CC1 [Compound 93, 2-((1-methylpiperidin-4-yl)oxy)-5-((1S,5R)-5-(trifluoromethyl)-3-(8-(trifluoromethoxy)quinolin-5-yl)-3-azabicyclo[3.1.0]hexan-1-yl)-1,3,4-oxadiazole]	< 100	
CN1CCC(O)(c2nnc([C@]34CN(c5ccc(C(F)(F)F)c6ncccc56)C[C@@]3(C(F)(F)F)C4)o2)CC1 [Compound 94, 1-methyl-4-(5-((1S,5R)-5-(trifluoromethyl)-3-(8-(trifluoromethyl)quinolin-5-yl)-3-azabicyclo[3.1.0]hexan-1-yl)-1,3,4-oxadiazol-2-yl)piperidin-4-ol]	< 100	
CN1CC(Cc2nnc([C@]34CN(c5ccc(C(F)(F)F)c6ncccc56)C[C@@]3(C(F)(F)F)C4)o2)C1 [Compound 95, 2-((1-methylazetidin-3-yl)methyl)-5-((1S,5R)-5-(trifluoromethyl)-3-(8-(trifluoromethyl)quinolin-5-yl)-3-azabicyclo[3.1.0]hexan-1-yl)-1,3,4-oxadiazole]	< 100	> 90
FC(F)(F)Oc1ccc(N2C[C@]3(c4nnc(C5(F)CCNCC5)o4)C[C@]3(C(F)(F)F)C2)c2cccnc12 [Compound 96, 2-(4-fluoropiperidin-4-yl)-5-((1S,5R)-3-(8-(trifluoromethoxy)quinolin-5-yl)-5-(trifluoromethyl)-3-azabicyclo[3.1.0]hexan-1-yl)-1,3,4-oxadiazole]	< 100	
CN1CCC(Oc2nnc([C@]34CN(c5ccc(C#N)c6ncnn56)C[C@@]3(C(F)(F)F)C4)o2)CC1 [Compound 97, 5-((1S,5R)-1-(5-((1-methylpiperidin-4-yl)oxy)-1,3,4-oxadiazol-2-yl)-5-(trifluoromethyl)-3-azabicyclo[3.1.0]hexan-3-yl)-[1,2,4]triazolo[1,5-a]pyridine-8-carbonitrile]	< 100	> 90
